Data published in patent US20040106135A1, “Assay for PPAR ligand dependent gene modulation” (priority 2002, published 2004).
Where two headings read alike, the source gives them in different places.

Assays:
[1] = tested on: PDK-4 mRNA in HK-2 cells (endogenous PPARα); assay: PDK-4 mRNA induction in HK-2 cells (real-time RT-PCR); format: cell-based, human; conditions: for EC50: 24 hours
Method: Values were normalized to 18S rRNA levels.
EC50 values were determined for PDK-4 mRNA induction by quantitative PCR under conditions used to generate the data shown in FIG. 2. EC50 values in the transactivation assays were determined by transfection of an expression plasmid encoding a GAL4-hPPARα chimera into cells co-expressing a luciferase reporter gene under the transcriptional control of GAL4 upstream activating elements.
Cell culture: The following cell lines were obtained from American Type Culture Collection (ATCC) and cultured in the recommended medium for each cell type: HepG2, HK-2, Caki-1, LNCaP (CloneFGC), SW872, and ACHN. PPARα compounds were prepared to a 500× stock in DMSO; corresponding control cells received an equal volume of vehicle (0.2% v/v).
Real-time PCR: Fluorescence-based real-time PCR was performed essentially as described (Abbaszade et al., (1999) J. Biol. Chem. 274:23443-23450). Primers and probes designed from the hamster pyruvate dehydrogenase kinase 4 (PDK4) sequence (Genbank Accession No. AF321218), human pyruvate dehydrogenase kinase 4 (PDK-4) sequence (Genbank Accession No. NM_002612) and human adipose differentiation-related protein (ADFP) sequence (Genbank Accession No. NM_001122) were synthesized and purified by Biosearch Technologies. Probes for ADFP and PDK-4 were modified at the 5′ end with the reporter dye 6-FAM, and at the 3′ end with the quencher dye Black Hole Quencher 1 (Biosearch Technologies). Probes detecting rat 18S rRNA were modified at the 5′ end with VIC and at the 3′ end with TAMRA (Biosearch Technologies). For detection of hamster PDK4, primers 5′-[…] (SEQ ID NO:2), 5′[…] (SEQ ID NO:3), and probe 5′-[…] (SEQ ID NO:4) were used. For detection of human PDK4, primers 5′-[…] (SEQ ID NO:5), 5′-[…] (SEQ ID NO:6), and probe 5′-[…] (SEQ ID NO:7) were used. For detection of human ADFP, primers 5′-[…] (SEQ ID NO:8), 5′-[…] (SEQ ID NO:9), and probe 5′-[…] (SEQ ID NO: 10) were used. For detection of 18s rRNA, primers 5′-[…] (SEQ ID NO:11), 5′-[…] (SEQ ID NO:12), and probe 5′-[…] (SEQ ID NO:13) were used. Template cDNA was generated using the Advantage RT-PCR kit according to the manufacturer's (Clontech) instructions using random hexamers and 1 μg of DNaseI-treated total RNA. Taqman-based real-time PCR expression profiling was performed using 25 ng of each cDNA according to the manufacturer's (PE Biosystems) instructions with fluorescence being monitored in real-time with an ABI Prism 7700 (PE Biosystems). Relative expression levels were determined essentially as described (Gibson et al., (1996) Genome Res. 6:995-1001) using standard curves for each transcript. Relative abundance was then determined from these standard curves, subtracting mRNA levels obtained from negative control reactions performed in the absence of reverse transcriptase, and normalized to 18S rRNA levels. All expression measurements were performed in duplicate in two independent assays, generating a total of four measurements per cDNA.

LNCaP cells = assay: Transcriptional profiling by DNA microarray, LNCaP cells; format: cell-based, human
Method: Expression profiling: Expression profiling of RNA samples was performed essentially as described (Lockhart et al., (1996) Nat. Biotechnol. 14:1675-80) using the Affymetrix human U95Av2 array. Briefly, RNA was isolated from 100 mm cell culture dishes, DNased, and 15 μg used as a template for double stranded cDNA synthesis according to standard protocols (Invitrogen). Reverse transcription was primed using a T7-modified oligo-dT primer (5-[…]-d(T)24-3′) (SEQ ID NO: 1). In vitro transcription was then performed on each double stranded cDNA synthesis, according to the manufacturer's (Enzo Diagnostics) instructions. The resultant cRNA products were purified using RNeasy columns (Qiagen), pooled, and quantitated spectrophotometrically. For each sample, 20 μg of in vitro transcribed cRNA was fragmented by heating the sample to 94° C. in the presence of 40 mM Tris-acetate, pH 8.1, 100 mM potassium acetate, and 30 mM magnesium acetate. […]
Data Analysis: Affymetrix CEL files from GeneChip 4.0 (Affymetrix) were imported into Resolver 2.0 under an empirically derived Affymetrix error model (Rosetta Inpharmatics). […] Accordingly, the statistical significance (P-value) of a given expression data point takes into account the underlying error associated with the Affymetrix transcript abundance measurements as determined by this platform-specific error model. […]

## CCCCCCCN(CCc1ccc(SC(C)(C)C(=O)O)cc1)C(=O)Nc1ccc(F)cc1F [GW9578, ureido-thioisobutyric acid]
[1]; RT-PCR, read-out: EC50 for activation of PDK-4 in HK-2 cells
  EC50: ~0.01 µM
[1]; HK-2 cells, 100 nM GW9578
  Time to near maximal increase of PDK-4 mRNA: ≤ 2 h
[1]; PDK-4 mRNA induction by quantitative PCR, normalized to 18S rRNA, read-out: EC50 (μM) in HK-2 (PDK-4)
  EC50: 0.01 µM
LNCaP cells
  Changes in gene expression in LNCaP cells: only minor changes
